The record followed here is article PMC11364104, “Discovery of SARS-CoV-2 papain-like protease (PL^pro) inhibitors with efficacy in a murine infection model” (Science Advances, 2024).

Series [1] in a line: Rat pharmacokinetics. In kind it is in vivo, Wistar-Hannover rat. Conditions: for Vd: rat, iv, 1 mg/kg, read-out: Vdss. How it is done:
Figure S1. Setting Up the Collaboration Workflow and Operations
Preclinical Pharmacokinetics Studies
All activities involving animals were carried out in accordance with federal, state, local and institutional guidelines governing the use of laboratory animals in research in AAALAC accredited facilities and were reviewed and approved by Pfizer’s or Bioduro’s Institutional Animal Care and Use committee.
Mouse pharmacokinetic studies were done at BioDuro Pharmaceutical Product Development Inc. (Shanghai, PRC); male C57BL6 mice were purchased from Vital River (Beijing, China) and were typically 7-9 weeks of age at the time of dosing. During the pharmacokinetic studies all animals were housed individually. Access to food and water was provided ad libitum (i.e., subjects were dosed in the fed state). Compounds were administered intravenously (iv) via tail vein (n=2) dosed as a solution (1 mg/kg, 3 mL/kg) or via oral gavage as a solution (10 mg/kg, 3 mL/kg and 30 mg/kg, 3mL/kg) or as a suspension (15 mg/kg, 10 mL/kg; 50 mg/kg, 10 mL/kg; and 150 mg/kg, 10mL/kg). Dosing solutions were prepared immediately before dosing. The composition of each dosing vehicle is provided in Tables S5 and S6. Isoflurane was administered as anesthesia at 1-2% dose prior to collecting blood samples. Serial blood samples were collected via the retroorbital capillary at predetermined timepoints after dosing. Animals were monitored for pain or distress throughout the study, with at least daily monitoring during normal husbandry prior to study start. At the completion of the study, animals were euthanized by overdose of inhaled carbon dioxide. Blood samples were collected into tubes containing K2EDTA and stored on ice until centrifugation to obtain plasma, which was stored frozen at - 20 °C or lower until bioanalysis.
Rat pharmacokinetic studies were done at BioDuro Pharmaceutical Product Development Inc. (Shanghai, PRC); jugular vein- cannulated male Wistar-Hannover rats were purchased
(1 picture or pasted object on this page, not shown here) […]
from Vital River (Beijing, China) and were typically 7-9 weeks of age at the time of dosing.
During the pharmacokinetic studies all animals were housed individually. Access to food and water was provided ad libitum (i.e., subjects were dosed in the fed state). In the instances where oral (po) dose was administered in the fed state, with ad libitum access to food and water. Compounds were administered intravenously (iv) via the tail vein (n = 2) dosed as a solution (1 mg/kg, 3 ml/kg) or via oral gavage as a solution (10 mg/kg, 10 ml/kg). Dosing solutions were prepared immediately before dosing. The composition of each dosing vehicle […]
Serial blood samples were collected via the jugular vein cannula at […]
centrifugation to obtain plasma, which was stored frozen at - 20 °C or lower.
Dog pharmacokinetic studies were done at Pfizer (Groton, CT). All procedures performed on beagle dogs were in accordance with regulations and established guidelines and were reviewed and approved by an Institutional Animal Care and Use Committee through an ethical review process. Male Beagle dogs were purchased from Marshall Bioresources (North Rose, NY); subjects 3 years of age were used in pharmacokinetics studies. For each study (n=2), compounds were dosed iv by cephalic vein as a solution (0.5 mg/kg, 1 mL/kg) or via oral gavage as a suspension (3 mg/kg, 5 mL/kg). In the instances where oral (po) dose was administered in the fed state, dogs were fed a couple hours before dosing. In the instances where the IV dose was administered in the fasted state, dogs were fasted over night and fed 4 hours post dose. Subjects were monitored for pain or distress throughout the study followed by at least daily monitoring while off study. The iv dosing vehicle was optimized such that the compounds were in solution and stable for at least 24 h. Serial blood samples were collected via the jugular vein at predefined time points post-dose. Blood […]

In series [2] the target is T1, Human Cathepsin B (Homo sapiens, UniProt P07858).
T1 construct: assay run at Reaction Biology Corporation
Description: biochemical.

Series [3] deals with T2, Human Caspase 2 (Homo sapiens, UniProt P42575).
T2 construct: assay run at Reaction Biology Corporation
Kind of series: biochemical.

Series [4] concerns the target T3, Human Cathepsin S (Homo sapiens, UniProt P25774).
T3 construct: assay run at Reaction Biology Corporation
Description: biochemical.

Series [5] in a line: in vitro. Conditions: male, Wistar-Hannover, rat, plasma.
Series [6] has as its target CYP3A4 (Homo sapiens, UniProt P08684). Description: biochemical.
Series [7] can be described thus: In vitro genetic toxicity (bacterial reverse mutation assay). The following applies: in vitro genetic toxicity studies; listed as PF-07957472.
The mark [8] stands for this setting: Wistar-Hannover, plasma, Male Wistar Hanover Rat, 1.0 mg/kg iv, solution, mean n=2.
Setting [9] is: Wistar-Hannover, plasma, Male Wistar Hanover Rat, 10 mg/kg po, solution, mean n=2.

Where two headings read alike, the source gives them in different places.

T2 sequence (P42575 170-325 limits assumed): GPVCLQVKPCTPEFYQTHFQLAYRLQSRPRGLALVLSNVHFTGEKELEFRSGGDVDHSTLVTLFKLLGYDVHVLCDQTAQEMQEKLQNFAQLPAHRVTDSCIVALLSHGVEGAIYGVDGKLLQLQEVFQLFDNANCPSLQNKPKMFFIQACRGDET
T2 sequence (P42575 348-452 limits assumed): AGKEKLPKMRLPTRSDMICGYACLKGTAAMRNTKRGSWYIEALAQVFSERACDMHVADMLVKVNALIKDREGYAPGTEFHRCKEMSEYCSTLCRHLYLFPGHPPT
T3 sequence (P25774 115-331): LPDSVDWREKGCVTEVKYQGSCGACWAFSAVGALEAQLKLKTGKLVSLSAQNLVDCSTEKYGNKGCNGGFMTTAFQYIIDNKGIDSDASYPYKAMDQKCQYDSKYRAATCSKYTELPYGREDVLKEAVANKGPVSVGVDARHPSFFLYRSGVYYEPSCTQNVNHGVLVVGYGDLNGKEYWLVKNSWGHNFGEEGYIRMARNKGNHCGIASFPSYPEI
Chain of CYP3A4 (P08684 whole entry): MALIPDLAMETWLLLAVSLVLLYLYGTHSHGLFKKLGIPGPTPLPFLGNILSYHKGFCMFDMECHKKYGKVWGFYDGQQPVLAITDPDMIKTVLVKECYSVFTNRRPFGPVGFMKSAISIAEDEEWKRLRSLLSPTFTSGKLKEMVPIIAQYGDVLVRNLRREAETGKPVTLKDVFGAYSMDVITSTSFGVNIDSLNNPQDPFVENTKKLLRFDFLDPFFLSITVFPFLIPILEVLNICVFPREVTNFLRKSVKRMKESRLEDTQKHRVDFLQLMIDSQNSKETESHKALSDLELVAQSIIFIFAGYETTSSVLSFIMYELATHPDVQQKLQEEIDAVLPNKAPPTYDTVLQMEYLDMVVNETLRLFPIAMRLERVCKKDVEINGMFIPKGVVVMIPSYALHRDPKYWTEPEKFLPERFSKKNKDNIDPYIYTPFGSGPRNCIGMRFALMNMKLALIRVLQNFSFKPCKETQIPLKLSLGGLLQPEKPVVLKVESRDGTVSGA

The term AUC(0-inf) denotes total exposure, with the tail of the curve extrapolated. High values mean high exposure, low ones low exposure. In general, half-life refers to how long it takes for the measured level to halve. A high value points to slow loss. The Cmax is the peak of the concentration-time curve. What is called Tmax is the time from dosing to the highest level. Broadly, the IC50 is the point on the concentration scale where inhibition reaches its midpoint. For orientation: fraction unbound means free concentration divided by total concentration. Low readings indicate little free substance, high ones much free substance. Turning to `Cc1ccc(N2CCN(C)CC2)cc1C(=O)NC1(c2cc(-c3cnn(C)c3)nc3ccccc23)CC1` [Compound 4], the “Oral F” value in series [1] (Male Wistar Hanover Rat, 10 mg/kg po, solution, mean n=2) was 69.7%. The AUC(0-inf) in series [1] (setting [8]) came to 668 ng·h/mL; in series [1] (setting [9]) it was 4650 ng·h/mL. The figures for the half-life in series [1] (setting [8]) and in series [1] (setting [9]) were 3.59 h and 3.19 h, respectively. For the same compound, the clearance in series [1] (Wistar-Hannover, plasma, Male Wistar Hanover Rat, 1.0 mg/kg iv, solution, mean n=2, read-out: CLp) stood at 25.2 mL/min/kg. Moreover, the Cmax in series [1] (setting [9]) turned out to be 435 ng/mL. Moreover, the Tmax in series [1] (setting [9]) came out at 3 h. Besides, the bioavailability in series [1] (male, Wistar-Hannover, plasma, po, 10 mg/kg, rat (r), read-out: Oral F (%)) came to 69.7%. The Vd came out at 4.42 L/kg in series [1] (male, Wistar-Hannover, plasma, Male Wistar Hanover Rat, 1.0 mg/kg iv, solution, mean n=2) and 4.4 L/kg in series [1] (male, Wistar-Hannover, plasma, rat (r), intravenous). Moreover, the half-inhibitory concentration (IC50) in series [2] is greater than 100 µM; in series [3], greater than 100 µM; in series [4], greater than 100 µM; in series [6], greater than 30 µM. In series [5], the fraction unbound turned out to be 0.241. The “In vitro genotoxicity screen” value in series [7] is given as “not mutagenic or clastogenic”.
